Test results reported in patent US10793528B2 (priority 2016, dated 2020).

Experiments:
[1] = target: human nociceptin/orphanin FQ peptide receptor (hNOP) (Homo sapiens (Human), UniProt P41146); format: binding
[2] = target: human delta-opioid receptor (hDOP) (Homo sapiens (Human), UniProt P41143); assay: hDOP receptor binding assay (SPA, [3H]2-D-Ala-deltorphin II); details: concentration not given; neighbouring values @1μM
[3] = target: human mu-opioid receptor (hMOP) (Homo sapiens (Human), UniProt P35372); format: binding

## CCN(C)C1(c2ccccc2)CCC2(CC1)CN(CC(C)(C)C(N)=O)C(=O)N2C (stereo not drawn) [SC_5066, CIS-3-[8-(Ethyl-methyl-amino)-1-methyl-2-oxo-8-phenyl-1,3-diazaspiro[4.5]decan-3-yl]-2,2-dimethyl-propionamide]
[1]
  hNOP % @1μM (given instead of Ki): 0% @1μM
[2]
  DOP %: (DOP 22%)
[3]
  hMOP % @1μM (given instead of Ki): 7% @1μM

## CCN(C)[C@]1(c2ccccc2)CC[C@]2(CC1)CN(CC(C)(C)C(N)=O)C(=O)N2 [SC_5064, CIS-3-[8-(Ethyl-methyl-amino)-2-oxo-8-phenyl-1,3-diazaspiro[4.5]decan-3-yl]-2,2-dimethyl-propionamide]
[1]
  hNOP % @1μM (given instead of Ki): 3% @1μM
[2]
  DOP %: (DOP 20%)
[3]
  hMOP % @1μM (given instead of Ki): 3% @1μM
